Measured values taken from patent EP0678516B1, “Preparation of 2-bromo-5-(2-bromo-2-nitrovinyl)-furan and its use as microcide” (CENTRO DE BIOACTIVOS QUIMICOS DE LA UNIVERSIDAD CENTRAL DE …, priority 1994, dated 1995).

What was measured:
[1] = system: Streptococcus agalactiae and Staphylococcus aureus; experiment: Intracisternal treatment of clinical mastitis; type: in vivo, femal oxes
Source text: The active principle in a concentration of 0.1 % is applied by intracisternal route daily for three consecutive days in femal oxes clinically affected by mastitis of morbid catarrh purulen course types, in which the isolated micro-organisms were Streptococcus agalactiae and Staphylococcus aureus. As a control medicament the mammary infusion of neomicine was used.

[2] = system: Bovine infectious queratoconjunctivitis; experiment: Clinical test, external treatment of eye infections in animals; type: in vivo; settings: Cows (PE), small scale controlled clinical test
Source text: (§1) The effectiveness of the active principle against bacterial eye diseases in: 9435 animal eyes affected with queratoconjunctivitis; 8093 of cattle and 1342 of other species (sheep, rabbits, dogs, horses, pigs, cats, guinea-pigs and birds).
(§2) In some cases the result of the medicament was compared with others habitually used for these treatments.
(§3) Read: 1 = Bovine infectious queratoconjunctivitis (PE) = small scale or clinical test in conditions controlled on a small scale (U) = ointment (I) = injectable n = number of eyes treated P± = Average of treatment for clinical recuperation (weighted average) Rc = clinical recuperation 2 = conjunctivitis 3 = Querratitis 4= Queratoconjunctivitis 5= Blefaritis 6= general eye infection 7= clinical extension or test compared in conditions of extension (*) = Massive application in therapeutic survey in the new different animal species (G-1) = refers to 2-bromo-5-(2-bromo-2-nitro-vinyl)-furan

[3] = system: Bovine infectious queratoconjunctivitis; experiment: Clinical test, external treatment of eye infections in animals (extension); type: in vivo; settings: Cattle (E)
Source text: as §1, §2, §3

[4] = system: conjunctivitis, Querratitis, Queratoconjunctivitis; experiment: Clinical test, external treatment of eye infections in animals; type: in vivo; settings: Dogs
Source text: as §1, §2, §3

[5] = system: conjunctivitis and Blefaritis; experiment: as above; type: in vivo; settings: Rabbits
Source text: as §1, §2, §3

[6] = system: septic puerperal metritis; experiment: Treatment of septic puerperal metritis; type: in vivo, female oxes; settings: G-1 1.5% oil solution intrauterine, Tetracycline abdominal aorta route
Procedure: The treatment consisted in applying 40 ml for three consecutive days at intervals of 24 hours from the diagnosis of the disease process. Treatment was compared with intrasoric tetracyclin.

neomicine [reference compound]
Recuperated n (affected parts) ([1]; G-I 0.1% intracisternal daily for three days (57 parts), neomicine mammary infusion (12 parts)): 12
Recuperated % (clinical recuperation of the affected parts) ([1]; G-I 0.1% intracisternal daily for three days, neomicine mammary infusion): 100%

O=C(N[C@H](CO)[C@H](O)c1ccc([N+](=O)[O-])cc1)C(Cl)Cl [Chloran-fenicol-(I), Chloran-fenicol]
P± (Average of treatment for clinical recuperation, weighted average) [2]: 3.1ab
Re (clinical recuperation) [2]: 80.6ba %

O=C(N[C@H](CO)[C@H](O)c1ccc([N+](=O)[O-])cc1)C(Cl)Cl [Chloran-fenicol-(U), Chloran-fenicol]
P± (Average of treatment for clinical recuperation, weighted average) [3]: 3.4a
Re (clinical recuperation) [3]: 86.6a %
P± (Average of treatment for clinical recuperation, weighted average) [4]: 7.3b
Re (clinical recuperation) [4]: 81.5a %
P± (Average of treatment for clinical recuperation, weighted average) [5]: 3.2a

CN(C)[C@@H]1C(O)=C(C(N)=O)C(=O)[C@@]2(O)C(O)=C3C(=O)c4c(O)cccc4[C@@](C)(O)[C@H]3C[C@@H]12 [Tetracycline, reference compound]
Recuperated n ([6]; 27 females, 19 females): 13
IIA (Artificial insemination index) [6]: 1.78± 1.99b
Recuperated % [6]: 68.4%
T-R (Average of treatment interval of clinical recuperation) [6]: 39 days
IIA (Artificial insemination index) ([6]; listed as tetracycline): 1.78 ± 1.99
